We go through five compounds from patent US4064254A, “Substituted piperidines therapeutic process and compositions” (Mead Johnson & Company, priority 1976, dated 1977).

Converted amounts (≈) assume the structure as drawn. Some results are limits rather than exact numbers.

Assay [1] relates to serotonin in the brain in mice. As to the kind of experiment: antiserotonin activity in mice, 5-hydroxytryptophan / monoamine oxidase inhibitor (Corne). The assay is classed as in vivo. To be noted: Mus musculus. From the text: This test is dependent on the metabolism of 5-hydroxytryptophan to serotonin in the brain in mice which are pretreated with a monamine oxidase inhibitor.

The subject of the next assay is serotonin (rat uterus). As to the kind of experiment: antiserotonin activity in the rat uterus (spasmogenic effect of serotonin). The assay is classed as cell-based. As to conditions: rat uterine horn, 30° C., 0.4 microgram per milliliter of serotonin; read-out: IC50 (decrease of spasmogenic effect of serotonin by 50%). The procedure:
According to this test one of the uterine horns of a rat uterus is suspended in oxygenated salt solution at 30° C. The contractions of this tissue are then recorded and varying concentrations of the test compound introduced into the bath in order to determine the concentration that would decrease the spasmogenic effect of 0.4 microgram per milliliter of serotonin by 50%. This value is designated the IC50.

In assay [2] the test system is aconitine induced arrhythmia in the dog. In words: prevention of aconitine induced arrhythmia in the dog, intraduodenal administration. As to conditions: Canis lupus familiaris, read-out: effective dose in the prevention of aconitine induced arrhythmia. The assay is classed as in vivo. From the text:
(§1) The chest of an anesthetized dog is opened in the midline and the right and left atrial appendages exposed through small slits in the pericardium. Bypolar recording electrodes are affixed to the atrial surfaces and a 4 × 4 mm. piece of clean cloth is fixed to the surface of the right auricular appendage. Control recordings are made of various heart functions including femoral arterial blood pressure and right and left atrial electrograms. Atrial arrhythmia is then induced by placing 3-5 drops of a solution of aconitine on the cloth which is fixed to the right atrium. […] Throughout the experiment, fresh aconitine is (2-3 drops) placed on the cloth at 10 minute intervals.

For assay [3] the test system is unchanged. In words: aconitine induced atrial arrhythmia in the anesthetized dog, intravenous. As to conditions: Canis lupus familiaris, read-out: effective dose restoring normal cardiac rhythm, aconitine induced arrhythmia. It is filed as in vivo.
Description: as §1

Another assay concerns rabbit atrium. As to the kind of experiment: in vitro rabbit atrium test (refractory period). It is filed as cell-based. To be noted: Oryctolagus cuniculus; rabbit left atrium, 30° C., stimulated at 30 per minute; read-out: EC50 (50% of maximal increase in refractory period). The procedure: In this test, the left atrium is placed in Chenoweth's solution warmed to 30° C. and irrigated with 95% oxygen: 5% carbon dioxide. The lower end of the atrium is attached to a small hook fixed in the bath and the upper end is connected to a transducer to record contractile activity. […] A test compound is introduced into the bath and the test repeated after a 5 minute interval. A dose-response relationship is obtained by additional doses of the test compound. […] This value is designated the EC50.

Assay [4] relates to electrically induced arrhythmia in the dog. In words: electrically induced arrhythmia in the dog. As to conditions: Canis lupus familiaris, iv. It is filed as in vivo.
Assay [5] has as its system chloroform induced arrhythmia in the mouse. As to the kind of experiment: inhibition of chloroform induced arrhythmia in the mouse (Lawson). It is filed as in vivo. To be noted: ip, intraperitoneal, read-out: ED50, prevention of chloroform induced arrhythmia. From the text:
Another in vivo test involves the inhibition of chloroform induced arrhythmia in the mouse according to the method of J. W. Lawson, J. Pharmacol. Exp. Therap., 160, 22 (1968).

`CN1CCCCC1CCc1ccccc1NC(=O)C=Cc1ccccc1` (centres unmarked) [2'-[2-(1-Methyl-2-piperidyl)ethyl]-cinnamanilide]: the ED50 in assay [1] (ip, 1 h, intraperitoneal, 60 minute pretreatment) was determined as 21 mg/kg; in assay [1] (sc, 0.5 h, subcutaneous, 30 minute pretreatment), 4.3 mg/kg; in assay [1] (sc, 1 h, subcutaneous, 60 minute pretreatment), 10 mg/kg. For the same compound, the IC50 in the assay on serotonin (rat uterus) worked out at 0.00185 mg/L (≈ 0.00531 µM).
Take `COc1ccc(C(=O)Nc2ccccc2CCC2CCCCN2C)cc1` (centres unmarked) [4-methoxy-2'-[2-(1-methyl-2-piperidyl)ethyl]benzanilide]: the results for the minimal effective dose in assay [2], in assay [3] and in assay [4] were less than 10 mg/kg, 0.8 mg/kg and 1.9 mg/kg, respectively. The IC50 in the assay on serotonin (rat uterus) was 0.0046 mg/L (≈ 0.0131 µM). Also, in the assay with rabbit atrium, the EC50 amounted to 2.4 mg/L (≈ 6.81 µM). The ED50 in assay [5] stood at 7.1 mg/kg.
In the case of `CN1CCCCC1CCc1ccccc1N` (centres unmarked) [2-(o-Aminophenethyl)-1-methylpiperidine, 2-(O-Aminophenethyl)-1-methylpiperidine], in the assay with rabbit atrium, the EC50 was determined as 44 mg/L (≈ 202 µM).
Consider `CCN(CC)C(=O)[C@@H]1C=C2c3cccc4[nH]cc(c34)C[C@H]2N(C)C1` [lysergide, reference compound], for which, in the assay on serotonin (rat uterus), the half-maximal inhibitory concentration (IC50) amounted to 0.012 mg/L (≈ 0.0371 µM).
`C=C[C@H]1C[N@@]2CC[C@H]1C[C@@H]2[C@@H](O)c1ccnc2ccc(OC)cc12` [quinidine, reference compound]: the minimal effective dose in assay [2] was greater than 14 mg/kg; in assay [3] it was 6 mg/kg; in assay [4] it was 14 mg/kg. The EC50 with rabbit atrium was determined as 18 mg/L (≈ 55.5 µM). Moreover, the ED50 in assay [5] was determined as 83 mg/kg.
